Measurements taken from PMC11934087, “Rational Design of Stapled Covalent Peptide Modifiers of Oncoprotein E6 from Human Papillomavirus” (ACS Chemical Biology, 2025).
Where “and” joins values, the source holds several entries; their conditions need not be identical. Identical values can stand only once. Like-named read-outs stand apart in the source and are kept apart here. Where a SMILES comes first, the peptide text is derived from it. Bridges are numbered along the chain shown (N, C = ends). Where no end group is shown, it is not given here. [ ]: non-standard residue; d: D form. The star is where a group is joined. 5FAM = O=C1OC2(c3ccc(O)cc3Oc3cc(O)ccc32)c2ccc(C(=O)*)cc21; R8 = C=CCCCCCC[C@@](C)(N)C(=O)O; S5 = C=CCCC[C@](C)(N)C(=O)O; Dap = NC[C@H](N)C(=O)O; Acryloyl = C=CC(=O)*; BrAc = O=C(CBr)*; ClAc = O=C(CCl)*; βAla = NCCC(=O)O

How the values were obtained:
[1] = Glutathione reactivity assay (HPLC time course)
Experimental: To evaluate the reactivity toward off-target thiols, the acrylamide, bromoacetamide, and chloroacetamide covalent peptides were exposed to glutathione (10 equiv) in an HPLC time course assay over 96 h (Figure 4A). Here, a set of nonfluorescent peptides (2b, 3b, and 4b) were synthesized with an N-terminal tryptophan for quantification through absorbance measurements. Glutathione is the most abundant thiol in human cells,[40] and time point measurements were obtained by quenching reactions with cold acetonitrile containing TFA (0.1%) and 5-carboxyfluorescein as an internal standard.
Covalent peptides (100 μM) were diluted from 10 mM DMSO stock solutions (1% final DMSO content) and incubated in buffer (500 μL total volume; 50 mM Tris, 200 mM NaCl) with glutathione (10 equiv, 1 mM) at 37 °C. To quench the reaction, 10 μL of the reaction mixture was added to 100 μL of cold acetonitrile containing 0.1% TFA [v/v] and 10 μM fluorescein, included as an internal standard. Reaction mixtures were first analyzed by LCMS after 1 h of incubation to assign the glutathione adduct peak by comparison to mixtures quenched immediately following peptide addition. […] The AUC of the reacted covalent peptide was normalized to the AUC of the fluorescein standard. These values were plotted and fitted with nonlinear regression using GraphPad Prism software.

[2] = Off-target reactivity with DTT; format: physicochemical; conditions: DTT 1 mM
[3] = target: T1, GST-E6 (GST-tagged HPV16 E6 protein) (Human papillomavirus type 16, UniProt P03126); test: Competitive fluorescence polarization assay against a fluorescent E6 peptide ligand; format: binding, Human Papillomavirus (HPV-16)
T1 construct: host or cells: E. coli BL21
T1 sequence (P03126 whole entry): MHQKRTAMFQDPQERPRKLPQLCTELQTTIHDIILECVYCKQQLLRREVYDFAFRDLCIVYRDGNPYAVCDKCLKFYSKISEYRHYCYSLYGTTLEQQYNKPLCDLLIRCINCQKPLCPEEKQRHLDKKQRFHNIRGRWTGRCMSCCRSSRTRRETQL
Experimental: Next, covalent inhibition was evaluated by using a competitive FP assay. Recombinant GST-E6 was pre-incubated with a fluorescently labeled ligand for 30 min before addition of varying concentrations of the non-fluorescent covalent peptides (Figure 4B). Fluorophore polarization is greatest when the ligand is bound to its target, and consequently, a displacement of the ligand by the covalent peptide results in a decrease in polarization.[41],[42] The formation of a covalent bond between the peptide inhibitor and the C58 residue within E6 is expected to occur more slowly than noncovalent binding, permitting characterization of the affinity of the peptides 2b, 3b, and 4b.[41] […]
For noncompetitive FP experiments, varying concentrations of GST-E6 protein (38 μM; 10 point 2-fold serial dilution) were incubated with 30 nM fluorescently labeled peptides in buffer (10 μL total volume; 50 mM Tris, 200 mM NaCl, 1 mM DTT, 0.1% [v/v] Trition X-100) in black 384-well plates. […] Following incubation, FP at equilibrium was measured on a Tecan M1000 microplate reader (ex = 470 nm, em = 525; gain optimized, 200 flashes, 300 ms settle time, G-factor reference value 30 mP). Measured polarizations were fitted to a sigmoidal dose–response curve using GraphPad Prism software to generate KD values.

[4] = target: T1, GST-E6 (GST-tagged HPV16 E6 protein); test: Noncompetitive fluorescence polarization (FP) binding assay; parameters: species or system Human Papillomavirus (HPV-16)
Experimental: An N-terminal carboxyfluorescein was included for FP analysis of binding affinity for both the natural backbone and the stapled peptides.
For noncompetitive FP experiments, varying concentrations of GST-E6 protein (38 μM; 10 point 2-fold serial dilution) were incubated with 30 nM fluorescently labeled peptides in buffer (10 μL total volume; 50 mM Tris, 200 mM NaCl, 1 mM DTT, 0.1% [v/v] Trition X-100) in black 384-well plates. For competitive FP experiments, 100 nM GST-E6 was incubated with 30 nM fluorescently labeled noncovalent peptide and varying concentrations (20 μM; 3-fold serial dilution) of covalent peptide in buffer (20 μL) with a final DMSO content of 0.5% [v/v]. Negative control (polarization reference; 30 nM fluorescent peptide, no protein) and blank reference (buffer alone) were included in triplicate for G-factor calibration. Sample plates were centrifuged (1 min, 500g) and incubated for 30 min at RT. Following incubation, FP at equilibrium was measured on a Tecan M1000 microplate reader (ex = 470 nm, em = 525; gain optimized, 200 flashes, 300 ms settle time, G-factor reference value 30 mP). Measured polarizations were fitted to a sigmoidal dose–response curve using GraphPad Prism software to generate KD values.

bovine α-chymotrypsin = bovine α-chymotrypsin (Bos taurus, UniProt P00766); test: in vitro; conditions: 50 μM peptide, 50 nM bovine α-chymotrypsin, pH 7.5, room temp, HPLC
Experimental: Chymotrypsin was chosen due to its substrate selectivity for peptides containing hydrophobic side chains, including leucine, making the LxxLL motif a well-suited substrate for proteolytic cleavage by this protease.[54]
For each time point, a 50 μL aliquot was removed from the reaction mixture and quenched with 40 μL of 0.5% [v/v] trifluoroacetic acid in acetonitrile. Quenched samples were subsequently analyzed by analytical reverse-phase HPLC, and the remaining undigested peptide was quantified by integration of AUC. A plot of percent peptide remaining vs time was fit to a one-phase exponential decay to calculate half-life using GraphPad Prism software.

[5] = target: T2, Glutathione S-transferase (GST) tagged HPV-16 E6 (Human papillomavirus type 16 (HPV-16), UniProt P03126 1-158); test: fluorescence polarisation; conditions: both partners purified
T2 construct: Oncoprotein E6 of human papillomavirus type 16; GST fusion printed as 47 kDa; also called GST-E6; E6-GST; source: E. coli BL21, purified (glutathione agarose)
T2 sequence (P03126 whole entry, the tested form may be a part): as the sequence (P03126 whole entry) above

[6] = target: T2, Glutathione S-transferase (GST) tagged …; test: fluorescence polarisation; GST-E6 titrated (from 38 μM, 10 point 2-fold serial dilution) against 30 nM fluorescent peptide; 50 mM Tris, 200 mM NaCl, 1 mM DTT, 0.1% Triton X-100; 30 min at RT; sigmoidal dose-response fit; conditions: both partners purified

Molecule: C=CC(=O)NC[C@H](NC(=O)[C@H](CC(C)C)NC(=O)[C@H](CC(C)C)NC(=O)[C@H](CCC(=O)O)NC(=O)[C@H](CCC(N)=O)NC(=O)[C@H](CC(C)C)NC(=O)[C@@H](NC(=O)[C@H](CC(C)C)NC(=O)[C@H](CCC(=O)O)NC(=O)[C@H](C)NC(=O)[C@H](C)NC(=O)[C@H](C)NC(=O)CCNC(=O)[C@H](Cc1c[nH]c2ccccc12)NC(C)=O)[C@@H](C)O)C(N)=O [2b] (Ac-W[βAla]AAAELTLQELL[Dap](Acryloyl)-NH2)
- t1/2 of reaction with glutathione [1]: 10.3 h

Molecule: CC(=O)N[C@@H](Cc1c[nH]c2ccccc12)C(=O)NCCC(=O)N[C@@H](C)C(=O)N[C@@H](C)C(=O)N[C@@H](C)C(=O)N[C@@H](CCC(=O)O)C(=O)N[C@@H](CC(C)C)C(=O)N[C@H](C(=O)N[C@@H](CC(C)C)C(=O)N[C@@H](CCC(N)=O)C(=O)N[C@@H](CCC(=O)O)C(=O)N[C@@H](CC(C)C)C(=O)N[C@@H](CC(C)C)C(=O)N[C@@H](CNC(=O)CBr)C(N)=O)[C@@H](C)O [3b] (Ac-W[βAla]AAAELTLQELL[Dap](BrAc)-NH2)
- t1/2 of reaction with glutathione ([1]; 100 μM peptide, glutathione 10 equiv (1 mM), 50 mM Tris, 200 mM NaCl, 1% DMSO, 37 °C, HPLC 280 nm, GSH adduct peak area, n = 3): 0.142 h
- half-life of off-target reaction with DTT [2]: 2.1 min

Molecule: CC(=O)N[C@@H](Cc1c[nH]c2ccccc12)C(=O)NCCC(=O)N[C@@H](C)C(=O)N[C@@H](C)C(=O)N[C@@H](C)C(=O)N[C@@H](CCC(=O)O)C(=O)N[C@@H](CC(C)C)C(=O)N[C@H](C(=O)N[C@@H](CC(C)C)C(=O)N[C@@H](CCC(N)=O)C(=O)N[C@@H](CCC(=O)O)C(=O)N[C@@H](CC(C)C)C(=O)N[C@@H](CC(C)C)C(=O)N[C@@H](CNC(=O)CCl)C(N)=O)[C@@H](C)O [4b] (Ac-W[βAla]AAAELTLQELL[Dap](ClAc)-NH2)
- EC50 [3]: 40 nM
- t1/2 of reaction with glutathione ([1]; 100 μM peptide, glutathione 10 equiv (1 mM), 50 mM Tris, 200 mM NaCl, 1% DMSO, 37 °C, up to 96 h, HPLC 280 nm, GSH adduct peak area, n = 3): 7.0 h

Molecule: CC(C)C[C@H](NC(=O)[C@H](CC(C)C)NC(=O)[C@H](CCC(=O)O)NC(=O)[C@H](CCC(N)=O)NC(=O)[C@H](CC(C)C)NC(=O)[C@@H](NC(=O)[C@]1(C)CCCC=CCCC[C@](C)(NC(=O)CCNC(=O)c2ccc3c(c2)C(=O)OC32c3ccc(O)cc3Oc3cc(O)ccc32)C(=O)N[C@@H](C)C(=O)N[C@@H](C)C(=O)N[C@@H](CCC(=O)O)C(=O)N1)[C@@H](C)O)C(=O)NCC(N)=O [compound 5] ({5FAM-βAla}-[S5]AAE[S5]TLQELLG-NH2; staple 1-5)
- Kd [4]: < 1000 nM

Molecule: CC(C)C[C@H](NC(=O)[C@H](CC(C)C)NC(=O)[C@]1(C)CCCC=CCCC[C@](C)(NC(=O)[C@H](CCC(=O)O)NC(=O)[C@H](C)NC(=O)[C@H](C)NC(=O)[C@H](C)NC(=O)CCNC(=O)c2ccc3c(c2)C(=O)OC32c3ccc(O)cc3Oc3cc(O)ccc32)C(=O)N[C@@H]([C@@H](C)O)C(=O)N[C@@H](CC(C)C)C(=O)N[C@@H](CCC(N)=O)C(=O)N1)C(=O)NCC(N)=O [compound 7] ({5FAM-βAla}-AAAE[S5]TLQ[S5]LLG-NH2; staple 5-9)
- Kd [4]: 3000 nM

Molecule: CC(C)C[C@H](NC(=O)[C@H](CC(C)C)NC(=O)[C@H](CCC(=O)O)NC(=O)[C@]1(C)CCCC=CCCCCCC[C@@](C)(NC(=O)CCNC(=O)c2ccc3c(c2)C(=O)OC32c3ccc(O)cc3Oc3cc(O)ccc32)C(=O)N[C@@H](C)C(=O)N[C@@H](C)C(=O)N[C@@H](CCC(=O)O)C(=O)N[C@@H](CC(C)C)C(=O)N[C@@H]([C@@H](C)O)C(=O)N[C@@H](CC(C)C)C(=O)N1)C(=O)NCC(N)=O [compound 9] ({5FAM-βAla}-[R8]AAELTL[S5]ELLG-NH2; staple 1-8)
- Kd [4]: 430 nM and < 1000 nM
- degradation by chymotrypsin within 4 h (bovine α-chymotrypsin; 4 h): no degradation
- degradation by chymotrypsin on continued incubation up to 16 h (bovine α-chymotrypsin; up to 16 h): no significant degradation

Molecule: CC(C)C[C@H](NC(=O)[C@H](CC(C)C)NC(=O)[C@]1(C)CCCC=CCCCCCC[C@@](C)(NC(=O)[C@H](C)NC(=O)CCNC(=O)c2ccc3c(c2)C(=O)OC32c3ccc(O)cc3Oc3cc(O)ccc32)C(=O)N[C@@H](C)C(=O)N[C@@H](CCC(=O)O)C(=O)N[C@@H](CC(C)C)C(=O)N[C@@H]([C@@H](C)O)C(=O)N[C@@H](CC(C)C)C(=O)N[C@@H](CCC(N)=O)C(=O)N1)C(=O)NCC(N)=O [compound 10] ({5FAM-βAla}-A[R8]AELTLQ[S5]LLG-NH2; staple 2-9)
- Kd [4]: > 38000 nM

Molecule: AAAELTLQELL-{Dap(bromoacetamide)} (not fully specified (N-terminus)) [nonfluorescent bromoacetamide covalent peptide 3b]
- EC50 [5]: 2410 nM

Molecule: {5FAM-βAla}-[S5]AAE[S5]TLQELLG (staple 1-5) [(i, i + 4) stapled peptide 5]
- Kd [6]: 0.59 µM

Molecule: {5FAM-βAla}-AAAE[R8]TLQELL[S5] (staple 5-12) [(i, i + 7) stapled peptide 11]
- Kd [6]: 7 µM

B1: (i, i + 4) stapled peptide 7 (peptide)
chain: {5FAM-βAla}-AAAE[S5]TLQ[S5]LLG-NH2
modifications: staple 5-9
SMILES: CC(C)C[C@H](NC(=O)[C@H](CC(C)C)NC(=O)[C@]1(C)CCCC=CCCC[C@](C)(NC(=O)[C@H](CCC(=O)O)NC(=O)[C@H](C)NC(=O)[C@H](C)NC(=O)[C@H](C)NC(=O)CCNC(=O)c2ccc3c(c2)C(=O)OC32c3ccc(O)cc3Oc3cc(O)ccc32)C(=O)N[C@@H]([C@@H](C)O)C(=O)N[C@@H](CC(C)C)C(=O)N[C@@H](CCC(N)=O)C(=O)N1)C(=O)NCC(N)=O
- Kd [6]: 3.2 µM

Molecule: {5FAM-βAla}-[R8]AAELTL[S5]ELLG (staple 1-8) [(i, i + 7) stapled peptide 9]
- Kd [6]: 0.431 µM

Molecule: AAAELTLQELL-{Dap(acrylamide)} (not fully specified (N-terminus)) [nonfluorescent acrylamide covalent peptide 2b]
- EC50 [5]: 2070 nM

B2: (i, i + 4) stapled peptide 8 (peptide)
chain: {5FAM-βAla}-AAAELTL[S5]ELL[S5]-NH2
modifications: staple 8-12
SMILES: CC(C)C[C@@H]1NC(=O)[C@H](CCC(=O)O)NC(=O)[C@@](C)(NC(=O)[C@H](CC(C)C)NC(=O)[C@@H](NC(=O)[C@H](CC(C)C)NC(=O)[C@H](CCC(=O)O)NC(=O)[C@H](C)NC(=O)[C@H](C)NC(=O)[C@H](C)NC(=O)CCNC(=O)c2ccc3c(c2)C(=O)OC32c3ccc(O)cc3Oc3cc(O)ccc32)[C@@H](C)O)CCCC=CCCC[C@@](C)(C(N)=O)NC(=O)[C@H](CC(C)C)NC1=O
- Kd [6]: 8 µM
